# Values of other authors, collected in patent US20090306081A1, “Solid Dosage Formulations of Hydralazine Compounds and Nitric Oxide Donor Compounds” (priority 2006, published 2009).
smiles,measurement,setting,value
"O=[N+]([O-])O[C@H]1CO[C@H]2[C@@H]1OC[C@H]2O[N+](=O)[O-] [Diluted isosorbide dinitrate, 1,4,3,6-dianhydro-D-glucitol-2,5-dinitrate]",solubility in organic solvents,"organic solvents such as ethanol, ether and chloroform",freely soluble
same,solubility in water,water,sparingly soluble
